Assay [1] deals with D(1A) dopamine receptor (Homo sapiens, UniProt P21728). Kind of assay: DRUGMATRIX: Dopamine D1 radioligand binding (ligand: [3H] SCH-23390). The settings on record: Not Active = under 50% inhibition at 10 µM. The class given is cell membranes, CHO, Membrane.
Assay [2] concerns the target Sodium-dependent dopamine transporter (Homo sapiens, UniProt Q01959). Nature of the assay: DRUGMATRIX: Dopamine Transporter radioligand binding (ligand: [125I] RTI-55). The class given is cell membranes, CHO-K1, Membrane. As to conditions: Not Active = under 50% inhibition at 10 µM; for Ki: read-out: Ki.
For assay [3], the target named is T1, Endothelin-1 receptor (Homo sapiens, UniProt P25101). Further: in other assays of this panel Not Active means under 50% inhibition at 10 µM.
T1 sequence (P25101 whole entry): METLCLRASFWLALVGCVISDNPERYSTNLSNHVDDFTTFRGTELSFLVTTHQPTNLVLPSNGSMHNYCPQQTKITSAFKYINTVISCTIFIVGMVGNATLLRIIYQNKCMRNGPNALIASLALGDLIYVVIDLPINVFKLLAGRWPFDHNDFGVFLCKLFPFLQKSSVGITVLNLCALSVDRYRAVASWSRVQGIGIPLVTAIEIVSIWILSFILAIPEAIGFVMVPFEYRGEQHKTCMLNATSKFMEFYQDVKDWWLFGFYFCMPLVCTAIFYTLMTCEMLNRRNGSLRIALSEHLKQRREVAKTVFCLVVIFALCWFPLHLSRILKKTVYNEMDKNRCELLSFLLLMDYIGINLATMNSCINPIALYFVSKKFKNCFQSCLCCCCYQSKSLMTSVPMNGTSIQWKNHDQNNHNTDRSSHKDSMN
The class given is cell membranes, Membrane. The settings on record: cho-k1.

Assay [4] deals with T2, Leukotriene C4 synthase (Cavia porcellus, UniProt A6XA80).
T2 sequence (A6XA80 whole entry): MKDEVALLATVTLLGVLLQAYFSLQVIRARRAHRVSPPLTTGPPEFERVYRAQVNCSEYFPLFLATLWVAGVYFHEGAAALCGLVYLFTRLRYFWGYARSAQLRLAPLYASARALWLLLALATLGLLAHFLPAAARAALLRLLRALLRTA
Type of assay: tissue-based, Lung.

The target in assay [5] is Melanocortin receptor 4 (Homo sapiens, UniProt P32245). Type of assay: cell membranes, Membrane. As to conditions: hek293. Further: in other assays of this panel Not Active means under 50% inhibition at 10 µM.
The target of assay [6] is Mitogen-activated protein kinase 3 (Homo sapiens, UniProt P27361). Kind of assay: DRUGMATRIX: Protein Serine/Threonine Kinase, ERK1 enzyme inhibition (substrate: Myelin Basic Protein). More on the design: species or system Escherichia coli. As to conditions: Not Active = under 50% inhibition at 10 µM.
Chain of Mitogen-activated protein kinase 3 (P27361 whole entry): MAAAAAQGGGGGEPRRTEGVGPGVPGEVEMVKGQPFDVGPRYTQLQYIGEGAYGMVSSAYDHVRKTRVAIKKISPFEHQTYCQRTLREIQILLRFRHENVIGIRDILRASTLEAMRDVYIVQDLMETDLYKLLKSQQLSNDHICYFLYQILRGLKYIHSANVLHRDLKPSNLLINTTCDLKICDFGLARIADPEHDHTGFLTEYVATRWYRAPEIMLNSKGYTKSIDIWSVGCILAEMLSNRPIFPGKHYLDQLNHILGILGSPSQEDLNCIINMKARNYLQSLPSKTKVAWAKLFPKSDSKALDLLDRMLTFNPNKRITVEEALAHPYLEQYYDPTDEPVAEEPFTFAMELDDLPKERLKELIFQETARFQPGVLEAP

Chain of Sodium-dependent dopamine transporter (Q01959 whole entry): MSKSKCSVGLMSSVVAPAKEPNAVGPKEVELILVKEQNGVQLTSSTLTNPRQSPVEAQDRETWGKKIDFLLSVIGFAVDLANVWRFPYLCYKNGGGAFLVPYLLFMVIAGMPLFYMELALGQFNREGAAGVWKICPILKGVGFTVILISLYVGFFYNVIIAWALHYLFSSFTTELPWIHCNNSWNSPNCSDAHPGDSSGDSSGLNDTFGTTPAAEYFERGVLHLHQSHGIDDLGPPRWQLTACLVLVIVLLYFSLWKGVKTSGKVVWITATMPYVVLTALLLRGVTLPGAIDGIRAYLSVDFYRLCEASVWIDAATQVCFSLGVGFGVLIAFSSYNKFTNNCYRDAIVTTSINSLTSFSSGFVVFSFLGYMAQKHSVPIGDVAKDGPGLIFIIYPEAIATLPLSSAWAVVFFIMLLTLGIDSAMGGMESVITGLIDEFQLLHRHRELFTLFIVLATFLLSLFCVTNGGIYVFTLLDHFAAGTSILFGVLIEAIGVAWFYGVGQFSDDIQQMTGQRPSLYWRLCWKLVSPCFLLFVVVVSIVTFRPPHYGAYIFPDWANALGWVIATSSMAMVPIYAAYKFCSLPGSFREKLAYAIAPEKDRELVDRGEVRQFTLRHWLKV
Chain of D(1A) dopamine receptor (P21728 whole entry): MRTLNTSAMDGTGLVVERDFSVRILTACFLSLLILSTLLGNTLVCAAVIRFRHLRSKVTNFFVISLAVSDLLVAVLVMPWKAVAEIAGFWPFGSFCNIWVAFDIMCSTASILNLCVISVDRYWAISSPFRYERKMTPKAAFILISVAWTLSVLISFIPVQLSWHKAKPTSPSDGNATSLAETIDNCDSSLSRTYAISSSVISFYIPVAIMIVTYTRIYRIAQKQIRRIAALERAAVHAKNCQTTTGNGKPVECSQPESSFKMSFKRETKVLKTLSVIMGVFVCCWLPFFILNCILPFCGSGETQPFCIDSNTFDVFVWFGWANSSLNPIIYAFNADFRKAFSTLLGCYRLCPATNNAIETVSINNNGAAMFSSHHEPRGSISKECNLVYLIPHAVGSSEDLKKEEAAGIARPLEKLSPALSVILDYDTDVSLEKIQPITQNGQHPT
Chain of Melanocortin receptor 4 (P32245 whole entry): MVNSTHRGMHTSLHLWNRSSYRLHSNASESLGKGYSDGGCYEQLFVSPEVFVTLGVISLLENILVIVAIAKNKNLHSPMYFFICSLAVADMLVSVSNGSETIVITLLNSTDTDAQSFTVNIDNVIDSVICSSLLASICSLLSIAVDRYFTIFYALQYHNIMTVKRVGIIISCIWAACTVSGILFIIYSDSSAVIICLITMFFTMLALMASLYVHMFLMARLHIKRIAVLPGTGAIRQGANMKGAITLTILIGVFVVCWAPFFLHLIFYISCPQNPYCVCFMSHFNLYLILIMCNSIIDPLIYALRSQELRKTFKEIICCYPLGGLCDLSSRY

What is called IC50 is the concentration needed to halve the response being measured. Turning to `CCCNC(=O)NS(=O)(=O)c1ccc(Cl)cc1` [CHLORPROPAMIDE], the IC50 entry in assay [1] (cho), in assay [2] (cho-k1), in assay [3], in assay [4], in assay [5] and in assay [6] was “Not Active” each time.
Take `NS(=O)(=O)c1cc(C2(O)NC(=O)c3ccccc32)ccc1Cl` (centres undefined) [CHLORTHALIDONE]: the IC50 entry in assay [1] (cho), in assay [2] (cho-k1), in assay [3], in assay [4], in assay [5] and in assay [6] was “Not Active” throughout.
`O=C(O)CC(O)(CC(=O)O)C(=O)O` [CITRIC ACID]: the IC50 result in assay [1] (cho), in assay [2] (cho-k1), in assay [3], in assay [4], in assay [5] and in assay [6] was “Not Active” each time.
For the molecule `CC(C)NCC(O)c1ccccc1Cl` (centres undefined) [CLORPRENALINE], the 50% inhibitory concentration (IC50) entry in assay [1] (cho), in assay [2] (cho-k1), in assay [3], in assay [4], in assay [5] and in assay [6] was “Not Active” in each case.
The term Ki denotes a dissociation constant, usually derived from enzyme kinetics or from competition with a known ligand. Consider `CN1CCN(C(c2ccccc2)c2ccccc2)CC1` [CYCLIZINE], for which the IC50 entry was “Not Active” in assay [1] (cho); 763 nM in assay [2] (read-out: IC50); “Not Active” in assay [3]; “Not Active” in assay [4]; “Not Active” in assay [5]; “Not Active” in assay [6]. The Ki in assay [2] worked out at 606 nM.
As to `CN1C[C@@H]2C[C@H]1CN2c1cc2c(cc1F)c(=O)c(C(=O)O)cn2C1CC1` [DANOFLOXACIN], the IC50 result in assay [1] (cho), in assay [2] (cho-k1), in assay [3], in assay [4], in assay [5] and in assay [6] was “Not Active” each time.
For `COc1cccc2c1C(=O)c1c(O)c3c(c(O)c1C2=O)C[C@@](O)(C(C)=O)C[C@@H]3O[C@H]1C[C@H](N)[C@H](O)[C@H](C)O1` [DAUNORUBICIN], the IC50 result in assay [1] (cho), in assay [2] (cho-k1), in assay [3], in assay [4], in assay [5] and in assay [6] was “Not Active” in each case.
Regarding `O=C(O)c1cc(-c2ccc(F)cc2F)ccc1O` [DIFLUNISAL], the IC50 result in assay [1] (cho), in assay [2] (cho-k1), in assay [3], in assay [4], in assay [5] and in assay [6] was “Not Active” each time.
With `C[S+](C)[O-]` [DIMETHYL SULFOXIDE], the IC50 result in assay [1] (cho), in assay [2] (cho-k1), in assay [3], in assay [4], in assay [5] and in assay [6] was “Not Active” each time.
Turning to `CC1=NN(c2ccccc2)C(=O)C1` [EDARAVONE], the IC50 result in assay [1] (cho), in assay [2] (cho-k1), in assay [3], in assay [4], in assay [5] and in assay [6] was “Not Active” in each case.
As to `CC(C)C[C@H]1C(=O)N2CCC[C@H]2[C@]2(O)O[C@](NC(=O)[C@@H]3C=C4c5cccc6[nH]cc(c56)C[C@H]4N(C)C3)(C(C)C)C(=O)N12` [ERGOCRYPTINE], the IC50 in assay [1] (read-out: IC50) was 403 nM; in assay [2] (cho-k1) it was “Not Active”; in assay [3], “Not Active”; in assay [4] it was “Not Active”; in assay [5] it was “Not Active”; in assay [6], “Not Active”. Further, in assay [1] (read-out: Ki), the Ki was 202 nM.
As to `C[C@]12CC[C@@H]3c4ccc(O)cc4CC[C@H]3[C@@H]1C[C@@H](O)[C@@H]2O` [ESTRIOL], the IC50 entry in assay [1] (cho), in assay [2] (cho-k1), in assay [3], in assay [4], in assay [5] and in assay [6] was “Not Active” throughout.
As to `C#C[C@]1(O)CC[C@H]2[C@@H]3CCC4=CC(=O)CC[C@]4(C)[C@H]3CC[C@@]21C` [ETHISTERONE], the IC50 result in assay [1] (cho), in assay [2] (cho-k1), in assay [3], in assay [4], in assay [5] and in assay [6] was “Not Active” throughout.
For `CC(O)(P(=O)(O)O)P(=O)(O)O` [ETIDRONIC ACID], the IC50 result in assay [1] (cho), in assay [2] (cho-k1), in assay [3], in assay [4], in assay [5] and in assay [6] was “Not Active” each time.
In the case of `CC(C)(C(=O)O)c1ccc(C(O)CCCN2CCC(C(O)(c3ccccc3)c3ccccc3)CC2)cc1` (centres undefined) [FEXOFENADINE], the IC50 entry in assay [1] (cho), in assay [2] (cho-k1), in assay [3], in assay [4], in assay [5] and in assay [6] was “Not Active” in each case.
As for `CN1CCN(c2c(F)cc3c(=O)c(C(=O)O)cn(CCF)c3c2F)CC1` [FLEROXACIN], the IC50 entry in assay [1] (cho), in assay [2] (cho-k1), in assay [3], in assay [4], in assay [5] and in assay [6] was “Not Active” each time.
For the molecule `O=c1[nH]c(=O)n([C@H]2C[C@H](O)[C@@H](CO)O2)cc1F` [FLOXURIDINE], the IC50 result in assay [1] (cho), in assay [2] (cho-k1), in assay [3], in assay [4], in assay [5] and in assay [6] was “Not Active” throughout.
For the molecule `COC(=O)Nc1nc2cc(C(=O)c3ccc(F)cc3)ccc2[nH]1` [FLUBENDAZOLE], the IC50 result in assay [1] (cho), in assay [2] (cho-k1), in assay [3], in assay [4], in assay [5] and in assay [6] was “Not Active” throughout.
For the molecule `CC(=O)OCC(=O)[C@@]1(O)CC[C@H]2[C@@H]3CCC4=CC(=O)CC[C@]4(C)[C@@]3(F)[C@@H](O)C[C@@]21C` [FLUDROCORTISONE ACETATE], the IC50 result in assay [1] (cho), in assay [2] (cho-k1), in assay [3], in assay [4], in assay [5] and in assay [6] was “Not Active” throughout.
Regarding `CCOC(=O)c1ncn2c1CN(C)C(=O)c1cc(F)ccc1-2` [FLUMAZENIL], the IC50 result in assay [1] (cho), in assay [2] (cho-k1), in assay [3], in assay [4], in assay [5] and in assay [6] was “Not Active” in each case.
With `CC(=O)OCC(=O)[C@@]12OC(C)(C)O[C@@H]1C[C@H]1[C@@H]3C[C@H](F)C4=CC(=O)C=C[C@]4(C)[C@@]3(F)[C@@H](O)C[C@@]12C` [FLUOCINONIDE], the IC50 result in assay [1] (cho), in assay [2] (cho-k1), in assay [3], in assay [4], in assay [5] and in assay [6] was “Not Active” each time.
`O=C(O)P(=O)(O)O` [FOSCARNET]: the half-maximal inhibitory concentration (IC50) result in assay [1] (cho), in assay [2] (cho-k1), in assay [3], in assay [4], in assay [5] and in assay [6] was “Not Active” in each case.
In the case of `Cc1ccc(C)c(OCCCC(C)(C)C(=O)O)c1` [GEMFIBROZIL], the 50% inhibitory concentration (IC50) result in assay [1] (cho), in assay [2] (cho-k1), in assay [3], in assay [4], in assay [5] and in assay [6] was “Not Active” each time.
On to `O=c1c(-c2ccc(O)cc2)coc2cc(O)cc(O)c12` [GENISTEIN], for which the IC50 entry in assay [1] (cho) is “Not Active”; in assay [2] (read-out: IC50), 16900 nM; in assay [3], “Not Active”; in assay [4], “Not Active”; in assay [5], “Not Active”; in assay [6] it was “Not Active”. Moreover, the Ki in assay [2] worked out at 13400 nM.
With `CCC1=C(C)CN(C(=O)NCCc2ccc(S(=O)(=O)NC(=O)N[C@H]3CC[C@H](C)CC3)cc2)C1=O` [GLIMEPIRIDE], the concentration for half-maximal inhibition (IC50) result in assay [1] (cho), in assay [2] (cho-k1), in assay [3], in assay [4], in assay [5] and in assay [6] was “Not Active” in each case.
As to `Nc1cc(-c2ccncc2)c[nH]c1=O` [INAMRINONE], the 50% inhibitory concentration (IC50) entry in assay [1] (cho), in assay [2] (cho-k1), in assay [3], in assay [4], in assay [5] and in assay [6] was “Not Active” in each case.

The values above are taken from ChEMBL document CHEMBL1909046, “DrugMatrix in vitro pharmacology data”.
